Like-named read-outs stand apart in the source and are kept apart here.
Tests used:
Male ICR mice [1] = test: Tail suspension test; assay type: in vivo; conditions: for oral dose that significantly shortens immobility time (antidepressant effect): 45 minutes prior to testing (imipramine 30 minutes), immobility scored from 2 to 6 min; for influence of flumazenil on antidepressant effect (immobility time): 2.0 mg/kg p.o. 45 minutes prior plus flumazenil 1.25 mg/kg i.p. 15 minutes prior
Description: Tail suspension test. Male ICR mice 4 to 6 weeks of age were randomized into groups (n=12-20/group). Vehicle (0.9% NaCl), or one of oral l-THP, dl-THP and d-THP (0.1-5.0 mg/kg) was administered 45 minutes prior to testing; or 30 mg/kg oral imipramine was administered 30 minutes prior to testing. In the test, a mouse was taped to a bar by the tail and suspended 15 cm above ground for 6 minutes. The total time of immobility was scored manually from 2 to 6 min during the period of suspension. Decreased time of immobility is indicative of antidepressant effect (Stem et al, 1985). To test whether the antidepressant effect elicited by l-THP or dl-THP can be blocked by the benzodiazepine (BZ) binding site antagonist flumazenil, naïve male 4-6 week old mice were randomly separated into three groups (n=12-20/group). The first group received vehicle (p.o.) 45 minutes prior to test and flumazenil (1.25 mg/kg i.p) 15 minutes prior to test, the second group received l-THP (2.0 mg/kg, p.o) or dl-THP (2.0 mg/kg, p.o.) 45 minutes prior to test and vehicle (i.p) 15 minutes prior to test, and the third group received l-THP (2.0 mg/kg p.o) or dl-THP (2.0 mg/kg p.o) 45 minutes prior to test and flumazenil (1.25 mg/kg i.p) 15 minutes prior to experiment.

Male ICR mice [2] = test: Locomotor activity side effect test (crossings of infrared beams); assay type: in vivo; conditions: 3 mg/kg, 45 minutes prior; p<0.05
Description: Manic-like behavior was induced accomplished using the method of Pathak et al. (2015). Male ICR mice of 6 to 7 week were given daily injection of 1.8 mg/kg d-amphetamine (amphetamine-sensitized mice) or vehicle (0.9% NaCl vehicle treated, viz. mice unsensitized by amphetamine) for 5 days. Amphetamine was then withdrawn for 7 days. The locomotor activity test ‘ZIL-2’ apparatus (Beijing Institute of Materia Medica) employed consisted of a transparent plastic cylinder of 20 cm diameter×12 cm height equipped with six evenly spaced sets of infrared beam-photocell. The number of transitions made by the mouse across the beams as detected by the photocells was recorded automatically over a period of 5 minutes. The level of locomotor activity was scored by the number beam-crossings made by the mouse. In the test, amphetamine sensitized mice were randomly separated into groups (m=12-20 per group). The Amp group of mice received 0.9 mg/kg amphetamine injection 10 minutes prior to testing. […]
Male ICR mice of 4 to 6 weeks were randomly separated into groups (n=15-20 per group). […] Locomotor activity was measured based on crossings of infrared beams. […] Myorelaxant activity was measured using the horizontal wire test. […] For each mouse, the number of falls in 60 seconds was recorded.

Male ICR mice [3] = test: Elevated plus-maze test; assay type: in vivo; conditions: for anxiolysis (time spent in open arms): p<0.001; for time spent in the open arms (anxiolytic effect): 45 minutes prior, 5-minute test
Description: Elevated plus-maze test. Naive male ICR mice 4 to 6 weeks of age were randomly separated into groups (n=15-20/group). Vehicle (0.9% NaCl), 0.01, 0.05, 0.1, 0.5, 1, 2 and 2.5 mg/kg dl-THP or l-THP, or 1 or 3 mg/kg diazepam was orally administered 45 minutes prior to experiment. The test apparatus consisted of four arms, 25 cm×5 cm each, extended from a center platform of 5 cm×5 cm in the shape of a plus sign. Two of the opposite arms were enclosed by 20 cm opaque high walls, making up the closed arms. The plus maze was elevated 40 cm off the ground. Each mouse was placed onto the center of the maze with head facing an open arm. The frequency and time spent in the open and closed arms were recorded for a period of 5 minutes. An arm entry was recorded when all four paws were inside the arm. Increased number of open-arm entries and percentage of time spent in them are indicative of an anxiolytic effect on the mice (Kalueff and Tuohimaa, 2004; Treit et al., 1993). In addition, the number of closed-arm entries provided an index of locomotor activity (Boguszewski and Zagrodzka, 2002). […] The first group received vehicle (p.o.) 45 minutes prior to test and flumazenil (1.25 mg/kg i.p) 15 minutes prior to test, the second group received l-THP (1.0 mg/kg, p.o) 45 minutes prior to test and vehicle (i.p) 15 minutes prior to test, and the third group received l-THP (1.0 mg/kg p.o) 45 minutes prior to test and flumazenil (1.25 mg/kg i.p) 15 minutes prior to test.

Male ICR mice [4] = test: Horizontal wire test (myorelaxant effect); assay type: in vivo
Description: Male ICR mice of 4 to 6 weeks were randomly separated into groups (n=15-20 per group). Vehicle (0.9% NaCl), 0.01-2.5 mg/kg dl-THP or l-THP, and 1 and 3 mg/kg diazepam were orally administered 45 minutes prior to test. Locomotor activity was measured based on crossings of infrared beams. […] Myorelaxant activity was measured using the horizontal wire test. In this test, mouse was lifted by the tail and allowed to grasp onto a horizontally strung wire (1 mm diameter, 20 cm long and placed 20 cm above the table) with their forepaws and released. For each mouse, the number of falls in 60 seconds was recorded.

[5] = system: amphetamine sensitized mice; test: Test for antimanic-like behavior: locomotor activity of amphetamine sensitized mice; assay type: in vivo; conditions: 0.9 mg/kg amphetamine 10 minutes prior
Description: Manic-like behavior was induced accomplished using the method of Pathak et al. (2015). Male ICR mice of 6 to 7 week were given daily injection of 1.8 mg/kg d-amphetamine (amphetamine-sensitized mice) or vehicle (0.9% NaCl vehicle treated, viz. mice unsensitized by amphetamine) for 5 days. Amphetamine was then withdrawn for 7 days. The locomotor activity test ‘ZIL-2’ apparatus (Beijing Institute of Materia Medica) employed consisted of a transparent plastic cylinder of 20 cm diameter×12 cm height equipped with six evenly spaced sets of infrared beam-photocell. The number of transitions made by the mouse across the beams as detected by the photocells was recorded automatically over a period of 5 minutes. The level of locomotor activity was scored by the number beam-crossings made by the mouse. In the test, amphetamine sensitized mice were randomly separated into groups (m=12-20 per group). The Amp group of mice received 0.9 mg/kg amphetamine injection 10 minutes prior to testing. The l-THP groups received oral l-THP (0.05, 0.1 and 0.2 mg/kg) 30 minutes prior to testing, and 0.9 mg/kg amphetamine injection 10 minutes prior to testing. The Veh mice received vehicle orally 30 minutes prior to testing and vehicle injection 10 minutes prior to testing.

female ICR mice = test: Crawley's sociability and preference for social novelty test (three-chamber box); assay type: in vivo; conditions: 45 minutes prior
Description: In Crawley's test, female ICR mice of 8 to 10 weeks were randomized into groups (n=12-20/group), and orally administered 45 minutes prior to testing with vehicle (0.9% NaCl), 0.1 mg/kg l-THP or 0.5 mg/kg l-THP. The test apparatus comprised a rectangular, three-chamber box. Each chamber was 19×45 cm, and the dividing walls between chambers were made of clear Plexiglas. The central chamber was connected to each side chamber with a removable wall. Two identical wire cylindrical containers with removable lids that were large enough to hold a single mouse each were placed vertically inside the apparatus, one in the middle of each side chamber. Each of these containers consisted of a cup made of metal wires to allow for air exchange between the interior and exterior of the cylinder but small enough to prevent direct physical interactions between an animal on the inside with one on the outside, and a removable lid. In the beginning of the test, the two cylindrical containers in the two side chambers were empty, and the subject mouse was placed at the center of the middle chamber for adaptation. After 5 minutes, one social-object mouse (stranger-1) was placed inside the cylinder in one of the side chambers. The placement of strange-1 was systematically changed between the two side chambers between trials. Then the walls separating the middle chamber from the two side chambers were removed to allow the subject mouse free access to all three chambers. In a first 10-minute session, the duration and number of direct contacts between the subject mouse and the container cup housing or not housing the stranger-1 mouse were recorded individually. At the end of this session, a second social-object mouse (stranger-2) was placed in the wire container cup that was empty during the first 10-minute session. Then the duration and number of direct contacts between the subject mouse and the two container cups holding stranger-1 mouse and stranger-2 mouse were recorded separately during a second 10-minute session. The first 10-minute session provided an estimate of the sociability of the subject mouse in terms of its preference if any to spend more time with the container holding the stranger-1 mouse compared to the empty container. The second 10-minute session provided an estimate of the preference of the subject mouse for social novelty in terms of its preference if any to associate with the container holding the novel stranger-2 mouse compared to the container holding the more familiar stranger-1 mouse (Moy et al 2004; Kaidanovich-Beilin et al., 2011).

rats [6] = conditions: PTSD rats, cited from earlier work
rats [7] = conditions: 10, 20 and 40 mg/kg i.p., mediated by D2 receptors; cited from earlier work
rats [8] = conditions: PTSD rats, cited from earlier work; remark: listed apart in the source
rats [9] = conditions: cited from earlier work
mice [10] = conditions: 6.25, 12.5, and 18.75 mg/kg i.g.; cited from earlier work
mice [11] = conditions: oral administration; cited from earlier work

CN(C)CCCN1c2ccccc2CCc2ccccc21 [Imipramine]
oral dose that significantly shortens immobility time (antidepressant effect) (Male ICR mice [1]): 30 mg/kg

CN1C(=O)CN=C(c2ccccc2)c2cc(Cl)ccc21 [Diazepam]
locomotor activity (crossings of infrared beams) (Male ICR mice [2]): significant decrease
anxiolysis (time spent in open arms) (Male ICR mice [3]; diazepam 1 mg/kg): significant anxiolysis
anxiolysis (time spent in open arms) (Male ICR mice [3]; diazepam 3 mg/kg): significant anxiolysis
myorelaxant effect (number of falls in 60 seconds) (Male ICR mice [4]; 3 mg/kg): significant (p<0.05) myorelaxant effect

COc1cc2c(cc1OC)[C@@H]1Cc3ccc(OC)c(OC)c3CN1CC2 [l-THP, levorotatory tetrahydropalmatine]
time spent in the open arms (anxiolytic effect) (Male ICR mice [3]; 0.1 mg/kg oral): significant increase in time spent in the open arms
time spent in the open arms (anxiolytic effect) (Male ICR mice [3]; 0.5 mg/kg oral): significant increase in time spent in the open arms
influence of flumazenil on anxiolytic effect (time spent in open arms) (Male ICR mice [3]; 1.0 mg/kg p.o. 45 minutes prior plus flumazenil 1.25 mg/kg i.p. 15 minutes prior): inhibition of the anxiolytic effect
time spent in the open arms (anxiolytic effect) (Male ICR mice [3]; 2.5 mg/kg oral): significant increase in time spent in the open arms
lowest oral dose active for anxiolysis (Male ICR mice [3]): ≥ 0.1 mg/kg
myorelaxant effect (number of falls in 60 seconds) (Male ICR mice [4]; male, ICR, mouse, in vivo, 45 min): significant (p<0.01) myorelaxant effect
myorelaxant effect (number of falls in 60 seconds) (Male ICR mice [4]; mouse, in vivo): did not induce any significant myorelaxant effect
level of locomotor activity relative to Amp mice (antimanic effect) ([5]; 0.05 mg/kg oral 30 minutes prior): significantly reduced the level locomotor activity
level of locomotor activity relative to Amp mice (antimanic effect) ([5]; 0.1 mg/kg oral 30 minutes prior): significantly reduced the level locomotor activity
level of locomotor activity relative to Amp mice (antimanic effect) ([5]; 0.2 mg/kg oral 30 minutes prior): significantly reduced the level locomotor activity
influence of flumazenil on antidepressant effect (immobility time) (Male ICR mice [1]): inhibition of the antidepressant effects
lowest oral dose eliciting antidepressant effect based on immobility time (Male ICR mice [1]): ≥ 0.5 mg/kg
oral dose that significantly shortens immobility time (antidepressant effect) (Male ICR mice [1]): 0.5 to 5.0 mg/kg
preference for social novelty: stranger-2 vs familiar stranger-1 mouse (female ICR mice; 0.1 mg/kg oral, p<0.001): showed preference for the novel stranger-2 mouse
sociability: time with stranger-1 mouse container vs empty container (female ICR mice; 0.1 mg/kg oral, p<0.001): significant enhancement of sociability
preference for social novelty: stranger-2 vs familiar stranger-1 mouse (female ICR mice; 0.5 mg/kg oral, p<0.01): showed preference for the novel stranger-2 mouse
sociability: time with stranger-1 mouse container vs empty container (female ICR mice; 0.5 mg/kg oral, p<0.01): significant enhancement of sociability
anxiolytic effect based on the elevated plus-maze test (rats [6]; daily 50 mg/kg i.p.): significant anxiolytic effect
anxiolytic effect based on the elevated plus-maze test (rats [6]; daily 10 or 20 mg/kg i.p.): not
antinociceptive effects (rats [7]): dose-dependent antinociceptive effects
antidepressant effect based on sucrose intake or immobility time in the forced swimming test (rats [8]; daily 50 mg/kg i.p.): significant antidepressant effect
antidepressant effect based on sucrose intake or immobility time in the forced swimming test (rats [8]; daily 10 or 20 mg/kg i.p.): not
locomotion (rats [9]; 3 mg/kg i.p.): failed to do so
locomotion (rats [9]; 10 mg/kg i.p.): inhibited locomotion
locomotor activity (mice [10]): did not affect locomotor activity

COc1cc2c(cc1OC)[C@@H]1Cc3ccc(OC)c(OC)c3CN1CC2 (racemic) [dl-THP, dl-tetrahydropalmatine]
time spent in the open arms (anxiolytic effect) (Male ICR mice [3]; 1.0 mg/kg oral): significant increase in time spent in the open arms
time spent in the open arms (anxiolytic effect) (Male ICR mice [3]; 2.0 mg/kg oral): significant increase in time spent in the open arms
lowest oral dose active for anxiolysis (Male ICR mice [3]): ≥ 1.0 mg/kg
influence of flumazenil on antidepressant effect (immobility time) (Male ICR mice [1]): inhibition of the antidepressant effects
lowest oral dose eliciting antidepressant effect based on immobility time (Male ICR mice [1]): ≥ 2.0 mg/kg
oral dose that significantly shortens immobility time (antidepressant effect) (Male ICR mice [1]): 2.0 to 5.0 mg/kg
anxiolytic effects: entries into open arms without significant change in entries into closed arms (mice [11]): selective anxiolytic effects

Reference: patent publication US20200022970A1, “APPLICATION OF LEVOROTATORY TETRAHYDROPALMATINE TO THE TREATMENT OF DEPRESSION DISORDERS, BIPOLAR AND RELATED DISORDERS, MANIC EPISODES AND ANXIETY DISORDERS” (priority 2018, published 2020)
